According to patent US20100196357A1, “Microrna modulators and method for identifying and using the same” (priority 2008, published 2010):

Test system: miR-21
Assay: high throughput screen for compounds that modulate miR-21
Format: cell-based
Conditions: Homo sapiens; Tables 4-12
Source text: This example describes a high throughput screening assay to identify small organic molecules that perturb the miRNA process. These active small molecules can be used as novel chemical tools to better understand miRNA functions and the molecular mechanisms of miRNA biogenesis. Moreover, miRNA inhibitors can be potentially developed into new therapeutics, including anticancer and antiviral agents. The high throughput assay is composed of a two-stage screening protocol, including of a primary screen to identify potential lead compounds from small molecule collections, and a secondary screen to evaluate and characterize the primary actives and to obtain a detailed structure-activity relationship (SAR).
Primary miR-21 Assay. The primary miR-21 FLuc reporter assay is carried out with HeLa cells expressing the Luc-miR-21 reporter using a 48-hour incubation time. Active compounds that increase the luciferase response are identified based upon inhibition of miR-21.
SAR. The concentration-response data for the entire high throughput screen is plotted and modeled by a four parameter logistic fit and SAR analysis is performed according to conventional approaches (Iglese, et al. (2006) Proc. Natl. Acad. Sci. USA 130:11473-8). In brief, Class 1.1 and 1.2 are full curves containing upper and lower asymptotes with efficacy ≧80% and <80%, respectively. […]

Compound | AC50 [µM]
C/C(=N\NC(=O)c1cccs1)c1ccncc1 | 7.36
COc1ccc2c(c1)CC(C)C/C2=N\NC(=O)c1ccco1 (centres unmarked) | 16.5
